One assay has as its target SARS-CoV2 Mpro (Severe acute respiratory syndrome coronavirus 2 (2019-nCoV) (SARS-CoV-2), UniProt P0DTD1). Put plainly: COVID-19 (SARS-CoV2) Mpro enzymatic assay. The assay is classed as biochemical. The following applies: 25 nM Mpro, 25 μM substrate.
In a further assay the target is 229E Mpro (Human coronavirus 229E (HCoV-229E), UniProt P0C6X1). Briefly: 229E Mpro activity. The assay is classed as biochemical. The following applies: read-out: 229E Mpro EC50.

Some results are limits rather than exact numbers.

Sequence of 229E Mpro (P0C6X1 2966-3267 limits assumed): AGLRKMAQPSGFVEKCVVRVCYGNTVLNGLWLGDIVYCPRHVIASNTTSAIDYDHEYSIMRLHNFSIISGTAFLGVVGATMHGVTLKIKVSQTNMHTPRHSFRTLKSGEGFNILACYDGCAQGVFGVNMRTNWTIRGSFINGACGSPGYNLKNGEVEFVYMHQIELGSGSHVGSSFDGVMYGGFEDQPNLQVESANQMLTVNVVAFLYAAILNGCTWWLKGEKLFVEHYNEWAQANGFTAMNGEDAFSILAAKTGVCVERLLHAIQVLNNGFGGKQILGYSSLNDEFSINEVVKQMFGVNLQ
Description for 229E Mpro: Compounds are assayed using standard methods to assess compound activity and IC50. […] The assay buffer contains 20 mM of Tris-HCl (pH 7.3), 100 mM of NaCl, 1 mM of EDTA, 5mM of TCEP and 0.1% BSA.

By IC50 is commonly meant the concentration at which inhibition is half-maximal. As usually defined, the EC50 is the concentration at which the effect is half-maximal. `CC1(C)CC(C[C@@H](C#N)NC(=O)C2CC3(CCCCC3)CN2C(=O)c2cc3cccc(Cl)c3[nH]2)C(=O)N1` (single isomer, unassigned) [930 (Isomer 3.2)] had an IC50 on SARS-CoV2 Mpro of 2 to 10 µM. In addition, the EC50 on 229E Mpro lay within 10 to 30 µM.
In the same order, the values of `CC1(C)CC(C[C@@H](C#N)NC(=O)C2CC3(CCCCC3)CN2C(=O)c2cc3cccc(Cl)c3[nH]2)C(=O)N1` (single isomer, unassigned) [930 (Isomer 4)] are 2 to 10 µM and 10 to 30 µM.
In the same order, the values of `CC1(C)CC(C[C@@H](C#N)NC(=O)C2CC3(CCCCC3)CN2C(=O)c2cc3cccc(Cl)c3[nH]2)C(=O)N1` (single isomer, unassigned) [930 (Isomer 5)] are 10 to 30 µM and more than 30 µM.
In the same order, the values of `CC1(C)CC(C[C@@H](C#N)NC(=O)C2CC3(CCCCC3)CN2C(=O)c2cc3cccc(Cl)c3[nH]2)C(=O)N1` (single isomer, unassigned) [930 (Isomer 6)] are less than 2 µM and less than 2 µM.
`COc1cccc2[nH]c(C(=O)N3CC4(CCC(F)(F)CC4)CC3C(=O)N[C@H](C#N)C[C@@H]3CCCNC3=O)cc12` (single isomer, unassigned) [982 (Isomer 1)] showed an IC50 at SARS-CoV2 Mpro of less than 2 µM. For the same compound, at 229E Mpro, the EC50 is less than 2 µM.
Turning to `COc1cccc2[nH]c(C(=O)N3CC4(CCC(F)(F)CC4)CC3C(=O)N[C@H](C#N)C[C@@H]3CCCNC3=O)cc12` (single isomer, unassigned) [982 (Isomer 2)], the IC50 on SARS-CoV2 Mpro is more than 30 µM. Besides, on 229E Mpro, the EC50 is more than 30 µM.
`N#C[C@H](C[C@@H]1CCNC1=O)NC(=O)C1CC2(CCC2)CN1C(=O)c1cc2cccc(Cl)c2[nH]1` (single isomer, unassigned) [988 (Isomer 1)]: on SARS-CoV2 Mpro, the IC50 is more than 30 µM. The EC50 on 229E Mpro is more than 30 µM.
Regarding `N#C[C@H](C[C@@H]1CCNC1=O)NC(=O)C1CC2(CCC2)CN1C(=O)c1cc2cccc(Cl)c2[nH]1` (single isomer, unassigned) [988 (Isomer 2)], the IC50 at SARS-CoV2 Mpro is less than 2 µM. Moreover, the EC50 at 229E Mpro was less than 2 µM.
With `N#C[C@H](C[C@@H]1CCNC1=O)NC(=O)C1CC2(CCC2)CN1C(=O)c1cc2ccc(Cl)cc2[nH]1` (single isomer, unassigned) [990 (Isomer 1)], the IC50 at SARS-CoV2 Mpro is more than 30 µM. Further, the EC50 on 229E Mpro was more than 30 µM.
Turning to `N#C[C@H](C[C@@H]1CCNC1=O)NC(=O)C1CC2(CCC2)CN1C(=O)c1cc2ccc(Cl)cc2[nH]1` (single isomer, unassigned) [990 (Isomer 2)], at SARS-CoV2 Mpro, the IC50 is less than 2 µM. The EC50 at 229E Mpro was less than 2 µM.
With `COc1ccc(Cl)c2[nH]c(C(=O)N3CC4(CCC4)CC3C(=O)N[C@H](C#N)C[C@@H]3CCNC3=O)cc12` (single isomer, unassigned) [992 (Isomer 1)], the IC50 against SARS-CoV2 Mpro is less than 2 µM. In addition, the EC50 at 229E Mpro is less than 2 µM.
As for `COc1ccc(Cl)c2[nH]c(C(=O)N3CC4(CCC4)CC3C(=O)N[C@H](C#N)C[C@@H]3CCNC3=O)cc12` (single isomer, unassigned) [992 (Isomer 2)], the IC50 at SARS-CoV2 Mpro was more than 30 µM. In addition, the EC50 on 229E Mpro is more than 30 µM.
For `CC1(C)CC(C[C@@H](C#N)NC(=O)[C@H](CC2CC2)NC(=O)c2cc3cccc(Cl)c3[nH]2)C(=O)N1` (single isomer, unassigned) [1053 (Isomer 1)], at SARS-CoV2 Mpro, the IC50 fell in the range of 2 to 10 µM. In addition, on 229E Mpro, the EC50 was more than 30 µM.
In the same order, the values of `COc1cccc2[nH]c(C(=O)N[C@@H](CC3CC3)C(=O)N[C@](C)(C#N)CC3CCNC3=O)cc12` (single isomer, unassigned) [1055 (Isomer 2)] are more than 30 µM and more than 30 µM.
In the same order, the values of `COc1cccc2[nH]c(C(=O)N[C@@H](CC3CC3(F)F)C(=O)N[C@H](C#N)C[C@@H]3CCCNC3=O)cc12` (single isomer, unassigned) [1059 (Isomer 1)] are less than 2 µM and less than 2 µM.
In the same order, the values of `COc1cccc2[nH]c(C(=O)N[C@@H](CC3CC3(F)F)C(=O)N[C@H](C#N)C[C@@H]3CCCNC3=O)cc12` (single isomer, unassigned) [1059 (Isomer 2)] are 10 to 30 µM and 10 to 30 µM.
In turn, `COc1cccc2[nH]c(C(=O)N3CC4(CCCCC4)CC3C(=O)N[C@H](C#N)CC3CCC(C)(C)NC3=O)cc12` (single isomer, unassigned) [1111 (Isomer 1)] displayed an IC50 against SARS-CoV2 Mpro of less than 2 µM. In addition, at 229E Mpro, the EC50 lay in the range of 2 to 10 µM.
Regarding `COc1cccc2[nH]c(C(=O)N3CC4(CCCCC4)CC3C(=O)N[C@H](C#N)CC3CCC(C)(C)NC3=O)cc12` (single isomer, unassigned) [1111 (Isomer 2)], on SARS-CoV2 Mpro, the IC50 was more than 30 µM. Besides, at 229E Mpro, the EC50 is more than 30 µM.
In turn, `COc1cccc2[nH]c(C(=O)N3CC4(CCCCC4)CC3C(=O)N[C@H](C#N)CC3CCC(C)(C)NC3=O)cc12` (single isomer, unassigned) [1111 (Isomer 3)] returned an IC50 at SARS-CoV2 Mpro of less than 2 µM. In addition, the EC50 on 229E Mpro lay in the range of 2 to 10 µM.
In the same order, the values of `COc1cccc2[nH]c(C(=O)N3CC4(CCCCC4)CC3C(=O)N[C@H](C#N)CC3CCC(C)(C)NC3=O)cc12` (single isomer, unassigned) [1111 (Isomer 4)] are more than 30 µM and more than 30 µM.
For `COc1cc(Cl)c2[nH]c(C(=O)N3CC4(CCCCC4)CC3C(=O)N[C@H](C#N)C[C@@H]3CCCNC3=O)cc2c1` (single isomer, unassigned) [1147A (Isomer 1)], in that order: less than 2 µM and less than 2 µM.
For `COc1cc(Cl)c2[nH]c(C(=O)N3CC4(CCCCC4)CC3C(=O)N[C@H](C#N)C[C@@H]3CCCNC3=O)cc2c1` (single isomer, unassigned) [1147A (Isomer 2)], in that order: 2 to 10 µM and 10 to 30 µM.
For the compound `COc1cccc2[nH]c(C(=O)N3CC[C@H](c4ccccc4)[C@H]3C(=O)N[C@H](C#N)C[C@@H]3CCNC3=O)cc12` [Compound 163, (2S,3R)-N-((S)-1-cyano-2-((S)-2-oxopyrrolidin-3-yl)ethyl)-1-(4-methoxy-1H-indole-2-carbonyl)-3-phenylpyrrolidine-2-carboxamide], the IC50 against SARS-CoV2 Mpro was in the range of 2 to 10 µM. Also, the EC50 on 229E Mpro was 10 to 30 µM.
For `COc1cccc2[nH]c(C(=O)N[C@@H](Cc3cccnc3)C(=O)N[C@H](C#N)C[C@@H]3CCNC3=O)cc12` [Compound 191, N-[(1S)-2-[[(1S)-1-cyano-2-[(3S)-2-oxopyrrolidin-3-yl]ethyl]amino]-2-oxo-1-(3-pyridylmethyl)ethyl]-4-methoxy-1H-indole-2-carboxamide], in that order: 2 to 10 µM and more than 30 µM.
For `COc1cccc2[nH]c(C(=O)N3NCCC[C@H]3C(=O)N[C@H](C#N)C[C@@H]3CCNC3=O)cc12` [Compound 199], the IC50 against SARS-CoV2 Mpro lay in the range of 10 to 30 µM. Moreover, at 229E Mpro, the EC50 is more than 30 µM.
For `COc1cccc2[nH]c(C(=O)N3C[C@H](C)C[C@H]3C(=O)N[C@H](C#N)C[C@@H]3CCNC3=O)cc12` [Compound 413], in that order: 2 to 10 µM and less than 2 µM.
On to `COc1cccc2[nH]c(C(=O)N[C@@H](CC3CC3)C(=O)N[C@H](C#N)Cc3ccccn3)cc12` [Compound 439, N-[(1S)-2-[[(1S)-1-cyano-2-(2-pyridyl)ethyl]amino]-1-(cyclopropylmethyl)-2-oxo-ethyl]-4-methoxy-1H-indole-2-carboxamide], for which the half-inhibitory concentration (IC50) against SARS-CoV2 Mpro was 10 to 30 µM. For the same compound, at 229E Mpro, the EC50 was more than 30 µM.

The values above are taken from patent US11524940B1, “Inhibitors of cysteine proteases and methods of use thereof” (priority 2020, dated 2022).
